Results published in patent publication US20070270392A1, “Use of a Cyclopentenone Prostaglandin for Delaying the Onset and/or Preventing the Continuation of Labour” (Imperial College Innovations Limited, priority 2003, published 2007).

Experiments:
[1] = test system: COX-2; test: IL-1β-induced COX-2 expression in L− and L+ amnion cells; type: cell-based, human
Description: (§1) Placentae were obtained from patients at term either at elective Caesarean section prior to labour (L−) or following spontaneous labour onset and vaginal delivery (L+). Amnion cells were prepared as described in Bennett et al., (1989). Briefly, the amnion was separated from the placenta, washed 3× in PBS, cut into strips, and incubated in 0.51 mM EDTA in PBS for 15 min. The strips were washed in PBS 2× and digested with 2.5 mg/ml dispase in serum-free DMEM for 35 min at 37° C. The amnion was then shaken vigorously in DMEM, 10% FCS to dissociate the cells, the remaining strips discarded, and the cell suspension pelleted at 175 g for 10 min and cultured in DMEM, 10% FCS (Sigma), 1% L-glutamine, 1% penicillin-streptomycin.
Protein samples (20-70 μg) were mixed with Laemmli sample buffer (1:1) containing β-mercaptoethanol (5%), and boiled for 5 min. Proteins were then separated by SDS-PAGE (12-14% gels) and transferred onto PVDF membrane (Amersham Pharmacia Biotech). The membranes were blocked overnight in 5% non-fat milk prepared in PBS-T buffer, at 4° C. […] The blots were then incubated with HRP-conjugated secondary antibody (diluted 1:2000 in 1% non-fat milk in PBS-T buffer) for 1 h and washed three times (10 min each) in PBS-T. Signal detection was achieved using enhanced chemi-luminescence (ECL plus system, Amersham Pharmacia Biotech) according to manufacturer's instructions. […]

[2] = test system: NF-κB; test: Western immunoblot of NF-κB activation (p65, p50, IκB) in amnion cells; type: cell-based, human; settings: L−
Description: Western immunoblots of nuclear or cytosolic protein extracts from (A) myometrial cells, (B) L− amnion cells, and (C) L+amnion cells treated with 15dPGJ2 or vehicle for 2 h+/−IL-1, stimulation (15 min). Blots probed with antibodies against p65, p50 or IκBα.
as §1
Nuclear and cytosolic protein extracts were obtained from cultured amnion cells as described by Schreiber et al (1989). For nuclear/cytosolic fractionation, confluent cell monolayers were scraped and lysed using a buffer containing 10 mM HEPES, 10 mM KCl, 0.1 mM EDTA, 0.1 mM EGTA, 2 mM DTT, 1% (v/v) NP-40 and complete protease inhibitor tablets (CPIs, Roche), diluted to manufacturer's instructions. Cell lysates were incubated on ice for 10 min and NP-40 added to a final concentration of 1% (v/v). Lysates were vortexed for 10 secs and centrifuged for 30 secs at 4° C., 12000 g. The supernatants were retained as the cytosolic protein extracts. The pellets were resuspended in buffer containing 10 mM HEPES, 10 mM KCl, 0.1 mM EDTA, 0.1 mM EGTA, 2 mM DTT, 400 mM NaCl, 1% NP-40 (v/v) and CPIs. Samples were shaken vigorously for 15 min in an ice bath. The nuclear protein extracts were obtained in the supernatant following a 5 min centrifugation at 4° C., 12000 g.
Protein samples (20-70 μg) were mixed with Laemmli sample buffer (1:1) containing β-mercaptoethanol (5%), and boiled for 5 min. Proteins were then separated by SDS-PAGE (12-14% gels) and transferred onto PVDF membrane (Amersham Pharmacia Biotech). The membranes were blocked overnight in 5% non-fat milk prepared in PBS-T buffer, at 4° C. The blots were incubated with the primary antibody in 1% non-fat milk in PBS-T buffer for 1 h, and washed three times (10 min each) in PBS-T with vigorous shaking. The blots were then incubated with HRP-conjugated secondary antibody (diluted 1:2000 in 1% non-fat milk in PBS-T buffer) for 1 h and washed three times (10 min each) in PBS-T. Signal detection was achieved using enhanced chemi-luminescence (ECL plus system, Amersham Pharmacia Biotech) according to manufacturer's instructions. […]

[3] = test system: PPAR-γ; test: Western immunoblot of PPAR-γ protein expression in myometrial and amnion cells; type: cell-based, human
Description: Western immunoblots of (A) nuclear and cytosolic protein extracts from myometrial and amnion cells with or without 15 min IL-1β stimulation, and (B) nuclear extracts of myometrial cells treated with 15d-PGJ2+/−IL-1b. Probing with antibody to PPARγ.
Protein samples (20-70 μg) were mixed with Laemmli sample buffer (1:1) containing β-mercaptoethanol (5%), and boiled for 5 min. Proteins were then separated by SDS-PAGE (12-14% gels) and transferred onto PVDF membrane (Amersham Pharmacia Biotech). The membranes were blocked overnight in 5% non-fat milk prepared in PBS-T buffer, at 4° C. The blots were incubated with the primary antibody in 1% non-fat milk in PBS-T buffer for 1 h, and washed three times (10 min each) in PBS-T with vigorous shaking. The blots were then incubated with HRP-conjugated secondary antibody (diluted 1:2000 in 1% non-fat milk in PBS-T buffer) for 1 h and washed three times (10 min each) in PBS-T. Signal detection was achieved using enhanced chemi-luminescence (ECL plus system, Amersham Pharmacia Biotech) according to manufacturer's instructions.
30-50 μg protein extracts were subjected to SDS-PAGE and Western immuno-blotting. Secondary antibodies were IgG-HRP and ECL Plus detection kit (Amersham Pharmacia Biotech, Amersham Place, Little Chalfont, Bucks, HP7 9NA) was used for visualisation.

[4] = test system: LPS-induced inflammatory responses in placental homogenates; test: Mouse model of preterm labour: placental inflammatory responses after intrauterine LPS ± 15d-PGJ2; type: in vivo, mice
Description: Concentrations of IL-1 (in placental homogenates collected from gestation day 16 mice 6 hours after intrauterine injection of 250 μg LPS+vehicle or 250 μg LPS+4 μg 15d-PGJ2. * denotes statistically significant difference (t-test (p<0.05)).
Relative concentrations of phospho-p65 in placental homogenates collected from gestation day 16 mice 6 hours after intrauterine injection of 250 μg LPS+vehicle or 250 μg LPS+4 μg 15d-PGJ2. * denotes statistically significant difference (t-test (p<0.05)).
Surgery was performed on timed pregnant MF1 mice at day 16 of gestation. After deep maternal anaesthesia was attained, a minilaparotomy was performed in the lower abdomen. The uterine horns were exposed through the incision and preterm labour was induced by the intrauterine injection of […] lipopolysaccharide (LPS, Sigma) into the gravid horn. This was immediately followed by injection of 4 μg […] (Cayman), or an equal volume of vehicle (methyl acetate), at the same site. The uterus was then returned to the abdomen and the fascia and skin were closed with continuous vicryl sutures.
Mice were sacrificed 6 hours after injection of LPS±15d-PGJ2. Placentae were washed in phosphate buffered saline (PBS), flash frozen in liquid nitrogen and stored at −80° C. until further processing. Fetuses were washed in PBS, then immediately fixed in 4% paraformaldehyde for 24 h and then stored in 70% ethanol until further processing. Placentae were homogenized for 1 minute in the presence of lysis buffer comprising 400 mM KCl, 20 mM HEPES pH7.4, 1 mM dithiothreitol, 20% glycerol and 5% (v/v) protease inhibitor cocktail.
Homogenate levels of Interleukin-1β (IL-1β) and tumour necrosis factor α (TNFα) were determined in placental lysates by ELISA (R and D systems) according to manufacturers instructions. Total protein concentrations were determined for each homogenate and IL-1β and TNFα levels were expressed as pg/mg total protein. […] Phosphorylated p65 (phospho-p65) was detected by western immunoblotting using a specific antibody (Santa Cruz) and quantified by densitometric analysis.

[5] = proximal placentae, gestation day 16 mice, 6 hours after intrauterine 250 μg LPS+4 μg 15d-PGJ2, p<0.05

CCCCCC=CC=C1C(=O)C=C[C@@H]1CC=CCCCC(=O)O [15d-PGJ2, 15-deoxy-Δ^12,14prostaglandin J2]
IL-1β-induced COX-2 expression [1]: inhibited | IL-1β-induced IκBα and IκBβ degradation [2]: inhibition | IL-1β-induced p50 phosphorylation [2]: inhibited | IL-1β-induced p65 nuclear translocation [2]: inhibited | PPAR-γ protein expression [3]: not affected | TNFα levels according to drug treatment ([4]; placentae, 6 hours after intrauterine LPS+15d-PGJ2 vs LPS+ vehicle): not significantly altered | Levels of IL-1β lower than LPS+ vehicle [4, 5]: approximately 40% | phospho-p65 levels lower than LPS+ vehicle [4, 5]: approximately 35%
